# Measured values taken from patent US7622582B2, “Derivatives of 1-phenyl-benzofuro[3,2]pyridin-2(1H)-one” (Tibotec BVBA, priority 2004, dated 2009).
# Tested on: HIV
# Assay: Cellular assay: anti-viral activity in HIV-infected MT4 cells (MTT cell viability)
# Type: cell-based
# Settings: Human immunodeficiency virus 1, 120 h, five days incubation, MTT readout, negative logarithm of EC50 (protection of 50% of cells from cytopathogenic effect)
# Method: The compounds of the present invention were examined for anti-viral activity in a cellular assay, which was performed according to the following procedure.
# HIV- or mock-infected MT4 cells were incubated for five days in the presence of various concentrations of the inhibitor. At the end of the incubation period, the replicating virus in the control cultures has killed all HIV-infected cells in the absence of any inhibitor. Cell viability was determined by measuring the concentration of MTT, a yellow, water soluble tetrazolium dye that is converted to a purple, water insoluble formazan in the mitochondria of living cells only. Upon solubilization of the resulting formazan crystals with isopropanol, the absorbance of the solution was monitored at 540 nm. The values correlate directly to the number of living cells remaining in the culture at the completion of the five day incubation. The inhibitory activity of the compound was monitored on the virus-infected cells and was expressed as EC50 and EC90. These values represent the amount of the compound required to protect 50% and 90%, respectively, of the cells from the cytopathogenic effect of the virus. The toxicity of the compound was measured on the mock-infected cells and was expressed as CC50, which represents the concentration of compound required to inhibit the growth of the cells by 50%. The selectivity index (SI) (ratio CC50/EC50) is an indication of the selectivity of the anti-HIV activity of the inhibitor. Wherever results are reported as e.g. pEC50 or pCC50 values, the result is expressed as the negative logarithm of the result expressed as EC50 or CC50 respectively.
# Table 2 lists the pEC50 values obtained in this test for a number of compounds of the invention.
row,EC50 [µM],SMILES
1,2.51,"CC(=O)c1ccc(-n2c(=O)c(C)c(C#N)c3oc4ccccc4c32)cc1 [Compound 1, 1-(4-Acetyl-phenyl)-3-methyl-2-oxo-1,2-dihydro-benzo[4,5]furo[3,2-b]pyridine-4-carbonitrile]"
2,1.58,"Cc1c(C#N)c(=O)n(-c2ccc([N+](=O)[O-])cc2)c2c1oc1cccnc12 [Compound 3, 4-Methyl-1-(4-nitrophenyl)-2-oxo-1,2-dihydro-furo[3,2-b;4,5-b′]dipyridine-3-carbonitrile]"
3,0.398,"COc1ccc2c(c1)oc1c(C)c(C#N)c(=O)n(-c3ccc([N+](=O)[O-])cc3)c12 [Compound 5, 7-Methoxy-4-methyl-1-(4-nitrophenyl)-2-oxo-1,2-dihydro-benzo[4,5]furo[3,2-b]-pyridine-3-carbonitrile]"
4,3.16,"Cc1c(C#N)c(=O)n(-c2ccc([N+](=O)[O-])cc2)c2c1oc1cc(O)ccc12 [Compound 6, 7-Hydroxy-4-methyl-1-(4-nitrophenyl)-2-oxo-1,2-dihydro-benzo[4,5]furo[3,2-b]-pyridine-3-carbonitrile]"
